Non-standard residues stand in square brackets, D forms with d. Residues, ends and D or L forms follow the SMILES beside them. pT = C[C@@H](OP(=O)(O)O)[C@H](N)C(=O)O; pS = N[C@@H](COP(=O)(O)O)C(=O)O
target: T1, 14-3-3ζ (Homo sapiens, UniProt P63104); assay: FP assay with GR phosphorylated peptides and 14-3-3ζ; format: binding; details: FITC-labeled peptide 60 nM (monophosphorylated) or 10 nM (doubly phosphorylated) titrated with 14-3-3ζ, 30 min RT, Hill fit, triplicates; read-out: Kd with 14-3-3ζ by FP
T1 construct: Full-length expression and purification of 14-3-3; made in house; host or cells: E. coli BL21 (DE3)STAR
T1 sequence (P63104 1-245): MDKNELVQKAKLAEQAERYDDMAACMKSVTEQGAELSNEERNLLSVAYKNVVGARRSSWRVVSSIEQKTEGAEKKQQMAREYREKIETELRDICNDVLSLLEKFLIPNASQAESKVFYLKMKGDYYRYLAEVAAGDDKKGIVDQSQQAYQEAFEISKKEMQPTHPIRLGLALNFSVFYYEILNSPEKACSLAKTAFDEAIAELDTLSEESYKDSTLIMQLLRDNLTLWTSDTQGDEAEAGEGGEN
Experimental: After 30-min incubation at RT, the plates were read on a plate reader PHERAstar (BMG LABTECH GmbH) for FP signal using […] and standard excitation (485 nm) and emission (520 nm). Measurements were performed as triplicates. Binding data were fit to a standard Hill equation using the software Genedata Screener. The figures were made using the software GraphPad Prism 8. FP data were expressed as millipolarization (mP) units, and the dynamic range (ΔmP) was the difference of the signals from the bound peptide and free peptide. Errors are the standard error of the fit.

`CC(C)C[C@H](NC(=O)[C@H](CO)NC(=O)[C@@H]1CCCN1C(=O)[C@H](COP(=O)(O)O)NC(=O)[C@H](CO)NC(=O)[C@H](C)NC(=O)[C@H](CO)NC(=O)[C@@H](NC(=O)[C@H](CCCCN)NC(=O)[C@@H](N)C(C)C)C(C)C)C(=O)N[C@@H](C)C(=O)N[C@H](C(=O)N[C@@H](C)C(=O)O)C(C)C` [GR_pS45] (H-VKVSAS[pS]PSLAVA-OH; N-terminus assumed) and `CC(C)C[C@H](N)C(=O)N[C@@H](CCC(=O)O)C(=O)N[C@@H](Cc1ccccc1)C(=O)N[C@@H](CO)C(=O)N[C@@H](CO)C(=O)NCC(=O)N[C@@H](COP(=O)(O)O)C(=O)N1CCC[C@H]1C(=O)NCC(=O)N[C@@H](CCCCN)C(=O)N[C@@H](CCC(=O)O)C(=O)N[C@H](C(=O)N[C@@H](CC(N)=O)C(=O)O)[C@@H](C)O` [GR_pS203] (H-LEFSSG[pS]PGKETN-OH; N-terminus assumed) cannot be ordered by Kd: over 150000 nM for the first, over 150000 nM for the second.

Molecule `CC(C)C[C@H](NC(=O)[C@H](CC(=O)O)NC(=O)[C@H](CO)NC(=O)[C@H](CCCNC(=N)N)NC(=O)[C@H](Cc1c[nH]c2ccccc12)NC(=O)[C@@H]1CCCN1C(=O)[C@H](COP(=O)(O)O)NC(=O)[C@H](CCC(=O)O)NC(=O)[C@H](CC(N)=O)NC(=O)[C@@H](NC(=O)[C@H](CCC(=O)O)NC(=O)[C@H](CCCCN)NC(=O)CN)[C@@H](C)O)C(=O)O` [GR_pS211] (H-GKETNE[pS]PWRSDL-OH; N-terminus assumed) has a Kd of over 150000 nM.

same assay, conditions: read-out: PKd with 14-3-3ζ (converted)

In order of falling Kd:
1. CC[C@H](C)[C@H](NC(=O)[C@@H](NC(=O)[C@@H](N)CCCCN)[C@@H](C)O)C(=O)N[C@H](C(=O)N1CCC[C@H]1C(=O)N[C@@H](C)C(=O)N[C@@H](C)C(=O)N[C@@H](CC(C)C)C(=O)N1CCC[C@H]1C(=O)N[C@@H](CCC(N)=O)C(=O)N[C@@H](CC(C)C)C(=O)N[C@H](C(=O)N1CCC[C@H]1C(=O)NCC(=O)NCC(=O)NCC(=O)NCC(=O)NCC(=O)N[C@@H](CCCNC(=N)N)C(=O)N[C@@H](CO)C(=O)N[C@@H](Cc1ccc(O)cc1)C(=O)N[C@@H](CCCNC(=N)N)C(=O)N[C@@H](CCC(N)=O)C(=O)N[C@@H](CO)C(=O)N[C@@H](COP(=O)(O)O)C(=O)N[C@@H](C)C(=O)N[C@@H](CC(N)=O)C(=O)N[C@@H](CC(C)C)C(=O)N[C@@H](CC(C)C)C(=O)N[C@@H](CS)C(=O)N[C@@H](Cc1ccccc1)C(=O)O)[C@@H](C)O)C(C)C [GR_T524A-pS617] (H-KTIVPAALPQLTPGGGGGRSYRQS[pS]ANLLCF-OH)  126000 nM
2. CC[C@H](C)[C@H](NC(=O)[C@@H](NC(=O)[C@@H](N)CCCCN)[C@@H](C)O)C(=O)N[C@H](C(=O)N1CCC[C@H]1C(=O)N[C@@H](C)C(=O)N[C@H](C(=O)N[C@@H](CC(C)C)C(=O)N1CCC[C@H]1C(=O)N[C@@H](CCC(N)=O)C(=O)N[C@@H](CC(C)C)C(=O)N[C@H](C(=O)N1CCC[C@H]1C(=O)NCC(=O)NCC(=O)NCC(=O)NCC(=O)NCC(=O)N[C@@H](CCCNC(=N)N)C(=O)N[C@@H](CO)C(=O)N[C@@H](C)C(=O)N[C@@H](CCCNC(=N)N)C(=O)N[C@@H](CCC(N)=O)C(=O)N[C@@H](CO)C(=O)N[C@@H](COP(=O)(O)O)C(=O)N[C@@H](C)C(=O)N[C@@H](CC(N)=O)C(=O)N[C@@H](CC(C)C)C(=O)N[C@@H](CC(C)C)C(=O)N[C@@H](CS)C(=O)N[C@@H](Cc1ccccc1)C(=O)O)[C@@H](C)O)[C@@H](C)OP(=O)(O)O)C(C)C [GR_Y613A] (H-KTIVPA[pT]LPQLTPGGGGGRSARQS[pS]ANLLCF-OH)  79.4 nM
3. CC[C@H](C)[C@H](NC(=O)[C@@H](NC(=O)[C@@H](N)CCCCN)[C@@H](C)O)C(=O)N[C@H](C(=O)N1CCC[C@H]1C(=O)N[C@@H](C)C(=O)N[C@H](C(=O)N[C@@H](CC(C)C)C(=O)N1CCC[C@H]1C(=O)N[C@@H](CCC(N)=O)C(=O)N[C@@H](CC(C)C)C(=O)N[C@H](C(=O)N1CCC[C@H]1C(=O)NCC(=O)NCC(=O)NCC(=O)NCC(=O)NCC(=O)N[C@@H](CCCNC(=N)N)C(=O)N[C@@H](CO)C(=O)N[C@@H](Cc1ccc(O)cc1)C(=O)N[C@@H](CCCNC(=N)N)C(=O)N[C@@H](CCC(N)=O)C(=O)N[C@@H](C)C(=O)N[C@@H](COP(=O)(O)O)C(=O)N[C@@H](C)C(=O)N[C@@H](CC(N)=O)C(=O)N[C@@H](CC(C)C)C(=O)N[C@@H](CC(C)C)C(=O)N[C@@H](CS)C(=O)N[C@@H](Cc1ccccc1)C(=O)O)[C@@H](C)O)[C@@H](C)OP(=O)(O)O)C(C)C [GR_S616A] (H-KTIVPA[pT]LPQLTPGGGGGRSYRQA[pS]ANLLCF-OH)  63.1 nM
4. CC[C@H](C)[C@H](NC(=O)[C@@H](NC(=O)[C@@H](N)CCCCN)[C@@H](C)O)C(=O)N[C@H](C(=O)N[C@@H](C)C(=O)N[C@@H](C)C(=O)N[C@H](C(=O)N[C@@H](CC(C)C)C(=O)N1CCC[C@H]1C(=O)N[C@@H](CCC(N)=O)C(=O)N[C@@H](CC(C)C)C(=O)N[C@H](C(=O)N1CCC[C@H]1C(=O)NCC(=O)NCC(=O)NCC(=O)NCC(=O)NCC(=O)N[C@@H](CCCNC(=N)N)C(=O)N[C@@H](CO)C(=O)N[C@@H](Cc1ccc(O)cc1)C(=O)N[C@@H](CCCNC(=N)N)C(=O)N[C@@H](CCC(N)=O)C(=O)N[C@@H](CO)C(=O)N[C@@H](COP(=O)(O)O)C(=O)N[C@@H](C)C(=O)N[C@@H](CC(N)=O)C(=O)N[C@@H](CC(C)C)C(=O)N[C@@H](CC(C)C)C(=O)N[C@@H](CS)C(=O)N[C@@H](Cc1ccccc1)C(=O)O)[C@@H](C)O)[C@@H](C)OP(=O)(O)O)C(C)C [GR_P522A] (H-KTIVAA[pT]LPQLTPGGGGGRSYRQS[pS]ANLLCF-OH)  63.1 nM
5. CC[C@H](C)[C@H](NC(=O)[C@H](C)NC(=O)[C@@H](N)CCCCN)C(=O)N[C@H](C(=O)N1CCC[C@H]1C(=O)N[C@@H](C)C(=O)N[C@H](C(=O)N[C@@H](CC(C)C)C(=O)N1CCC[C@H]1C(=O)N[C@@H](CCC(N)=O)C(=O)N[C@@H](CC(C)C)C(=O)N[C@H](C(=O)N1CCC[C@H]1C(=O)NCC(=O)NCC(=O)NCC(=O)NCC(=O)NCC(=O)N[C@@H](CCCNC(=N)N)C(=O)N[C@@H](CO)C(=O)N[C@@H](Cc1ccc(O)cc1)C(=O)N[C@@H](CCCNC(=N)N)C(=O)N[C@@H](CCC(N)=O)C(=O)N[C@@H](CO)C(=O)N[C@@H](COP(=O)(O)O)C(=O)N[C@@H](C)C(=O)N[C@@H](CC(N)=O)C(=O)N[C@@H](CC(C)C)C(=O)N[C@@H](CC(C)C)C(=O)N[C@@H](CS)C(=O)N[C@@H](Cc1ccccc1)C(=O)O)[C@@H](C)O)[C@@H](C)OP(=O)(O)O)C(C)C [GR_T519A] (H-KAIVPA[pT]LPQLTPGGGGGRSYRQS[pS]ANLLCF-OH)  63.1 nM
6. CC[C@H](C)[C@H](NC(=O)[C@@H](NC(=O)[C@@H](N)CCCCN)[C@@H](C)O)C(=O)N[C@H](C(=O)N1CCC[C@H]1C(=O)N[C@@H](C)C(=O)N[C@H](C(=O)N[C@@H](CC(C)C)C(=O)N1CCC[C@H]1C(=O)N[C@@H](CCC(N)=O)C(=O)N[C@@H](CC(C)C)C(=O)N[C@H](C(=O)N1CCC[C@H]1C(=O)NCC(=O)NCC(=O)NCC(=O)NCC(=O)NCC(=O)N[C@@H](CCCNC(=N)N)C(=O)N[C@@H](CO)C(=O)N[C@@H](Cc1ccc(O)cc1)C(=O)N[C@@H](CCCNC(=N)N)C(=O)N[C@@H](CCC(N)=O)C(=O)N[C@@H](CO)C(=O)N[C@@H](COP(=O)(O)O)C(=O)N[C@@H](C)C(=O)N[C@@H](CC(N)=O)C(=O)N[C@@H](CC(C)C)C(=O)N[C@@H](C)C(=O)N[C@@H](CS)C(=O)N[C@@H](Cc1ccccc1)C(=O)O)[C@@H](C)O)[C@@H](C)OP(=O)(O)O)C(C)C [GR_L621A] (H-KTIVPA[pT]LPQLTPGGGGGRSYRQS[pS]ANLACF-OH)  39.8 nM
7. CC[C@H](C)[C@H](NC(=O)[C@@H](NC(=O)[C@@H](N)CCCCN)[C@@H](C)O)C(=O)N[C@H](C(=O)N1CCC[C@H]1C(=O)N[C@@H](C)C(=O)N[C@H](C(=O)N[C@@H](CC(C)C)C(=O)N1CCC[C@H]1C(=O)N[C@@H](CCC(N)=O)C(=O)N[C@@H](CC(C)C)C(=O)N[C@H](C(=O)N1CCC[C@H]1C(=O)NCC(=O)NCC(=O)NCC(=O)NCC(=O)NCC(=O)N[C@@H](CCCNC(=N)N)C(=O)N[C@@H](CO)C(=O)N[C@@H](Cc1ccc(O)cc1)C(=O)N[C@@H](CCCNC(=N)N)C(=O)N[C@@H](C)C(=O)N[C@@H](CO)C(=O)N[C@@H](COP(=O)(O)O)C(=O)N[C@@H](C)C(=O)N[C@@H](CC(N)=O)C(=O)N[C@@H](CC(C)C)C(=O)N[C@@H](CC(C)C)C(=O)N[C@@H](CS)C(=O)N[C@@H](Cc1ccccc1)C(=O)O)[C@@H](C)O)[C@@H](C)OP(=O)(O)O)C(C)C [GR_Q615A] (H-KTIVPA[pT]LPQLTPGGGGGRSYRAS[pS]ANLLCF-OH)  39.8 nM
8. CC[C@H](C)[C@H](NC(=O)[C@@H](NC(=O)[C@@H](N)CCCCN)[C@@H](C)O)C(=O)N[C@H](C(=O)N1CCC[C@H]1C(=O)N[C@@H](C)C(=O)N[C@H](C(=O)N[C@@H](CC(C)C)C(=O)N1CCC[C@H]1C(=O)N[C@@H](C)C(=O)N[C@@H](CC(C)C)C(=O)N[C@H](C(=O)N1CCC[C@H]1C(=O)NCC(=O)NCC(=O)NCC(=O)NCC(=O)NCC(=O)N[C@@H](CCCNC(=N)N)C(=O)N[C@@H](CO)C(=O)N[C@@H](Cc1ccc(O)cc1)C(=O)N[C@@H](CCCNC(=N)N)C(=O)N[C@@H](CCC(N)=O)C(=O)N[C@@H](CO)C(=O)N[C@@H](COP(=O)(O)O)C(=O)N[C@@H](C)C(=O)N[C@@H](CC(N)=O)C(=O)N[C@@H](CC(C)C)C(=O)N[C@@H](CC(C)C)C(=O)N[C@@H](CS)C(=O)N[C@@H](Cc1ccccc1)C(=O)O)[C@@H](C)O)[C@@H](C)OP(=O)(O)O)C(C)C [GR_Q527A] (H-KTIVPA[pT]LPALTPGGGGGRSYRQS[pS]ANLLCF-OH)  31.6 nM

Source: article PMC8080530, “Glucocorticoid receptor Thr524 phosphorylation by MINK1 induces interactions with 14-3-3 protein regulators” (The Journal of Biological Chemistry, 2021)
